Test results reported in PubChem BioAssay AID330 (DTP/NCI, 2004).
Where “and” joins values, the source holds several entries; their conditions need not be identical. Equal values may be shown once. Toxic doses and inconclusive results are not listed.

Tested on: P388 leukemia ip, CD2F1 mice, survival T/C
Assay: NCI In Vivo Anticancer Drug Screen. Data for tumor model P388 Leukemia (intraperitoneal) in CD2F1 (CDF1) mice
Details: endpoint: median survival time, higher = longer survival
Summary of the method: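 Mice carrying the transplanted tumor received test compound or vehicle. Survival was recorded in each group, and the value is the treated-group measurement divided by that of the vehicle-treated control group.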

[1] = dose: 100.0 mg/kg/injection, schedule: Q01DX009 (ip), vehicle: Klucel (hydroxypropylcellulose) (HPC)
[2] = dose: 200.0 mg/kg/injection, schedule: Q01DX009 (ip), vehicle: Klucel (hydroxypropylcellulose) (HPC)
[3] = dose: 100.0 mg/kg/injection, schedule: Q04DX003 (ip), vehicle: Klucel (hydroxypropylcellulose) (HPC)
[4] = dose: 200.0 mg/kg/injection, schedule: Q04DX003 (ip), vehicle: Klucel (hydroxypropylcellulose) (HPC)
[5] = dose: 60.0 mg/kg/injection, schedule: Q01DX005 (ip), vehicle: saline with Tween-80
[6] = dose: 120.0 mg/kg/injection, schedule: Q01DX005 (ip), vehicle: saline with Tween-80
[7] = dose: 240.0 mg/kg/injection, schedule: Q01DX005 (ip), vehicle: saline with Tween-80
[8] = dose: 100.0 mg/kg/injection, schedule: Q04DX002 (ip), vehicle: saline with Tween-80
[9] = dose: 200.0 mg/kg/injection, schedule: Q04DX002 (ip), vehicle: saline with Tween-80

With `CCC1CN2CCc3cc(OC)c(OC)cc3C2CC1(O)C#N` (stereo not drawn) the T/C [1] was 99 % of control and the T/C [2] was 102 % of control.
For `Cc1ccc(NC(=S)SCc2ccc([N+](=O)[O-])cc2)cc1C`, the T/C (dose: 50.0 mg/kg/injection, schedule: Q01DX009 (ip), vehicle: suspension in saline) was 89 % of control, the T/C (dose: 100.0 mg/kg/injection, schedule: Q01DX009 (ip), vehicle: suspension in saline) was 107 % of control and the T/C (dose: 200.0 mg/kg/injection, schedule: Q01DX009 (ip), vehicle: suspension in saline) was 101 % of control.
With `CN1C(=O)/C(=C2\SC(=O)N(CN3CCOCC3)C2=O)c2cc(Br)ccc21` the T/C (dose: 50.0 mg/kg/injection, schedule: Q01DX005 (ip), vehicle: Klucel (hydroxypropylcellulose) (HPC)) was 88 % of control, the T/C (dose: 100.0 mg/kg/injection, schedule: Q01DX005 (ip), vehicle: Klucel (hydroxypropylcellulose) (HPC)) was 89 % of control and the T/C (dose: 200.0 mg/kg/injection, schedule: Q01DX005 (ip), vehicle: Klucel (hydroxypropylcellulose) (HPC)) was 97 % of control.
`CCCCn1c(O)c(/C=C2/C=Nc3ccccc32)sc1=O` was tested, and the T/C (dose: 50.0 mg/kg/injection, schedule: Q01DX009 (ip), vehicle: saline with Tween-80) was 95 % of control, the T/C (dose: 100.0 mg/kg/injection, schedule: Q01DX009 (ip), vehicle: saline with Tween-80) was 95 % of control and the T/C (dose: 200.0 mg/kg/injection, schedule: Q01DX009 (ip), vehicle: saline with Tween-80) was 97 % of control.
In the case of `C=CCC1CCSC1=O` (stereo not drawn), the T/C (dose: 25.0 mg/kg/injection, schedule: Q04DX003 (ip), vehicle: saline with Tween-80) is reported as 109 % of control.
For `COC(OC)C(C(=O)c1ccc(OCc2ccccc2)cc1O)c1cc2c(cc1OCc1ccccc1)OCO2` (stereo not drawn), the T/C [3] was 96 % of control, the T/C [4] was 101 % of control and the T/C (dose: 400.0 mg/kg/injection, schedule: Q04DX003 (ip), vehicle: Klucel (hydroxypropylcellulose) (HPC)) was 98 % of control.
With `O=c1[nH][nH]c(=O)n2c1cc1oc(-c3ccccc3)cc12` the T/C [5] was 86 % of control, the T/C [6] was 90 % of control and the T/C [7] was 86 % of control.
With `CN(C)c1noc2c1c(=O)n(C)c(=O)n2C` the T/C (dose: 60.0 mg/kg/injection, schedule: Q01DX005 (ip), vehicle: saline) was 105 % of control, the T/C (dose: 120.0 mg/kg/injection, schedule: Q01DX005 (ip), vehicle: saline) was 100 % of control and the T/C (dose: 240.0 mg/kg/injection, schedule: Q01DX005 (ip), vehicle: saline) was 99 % of control.
For `COc1cc(CC2c3cc(OC)c(OC)cc3CCN2C)c(Oc2cc3c(cc2OC)-c2c(OC)c(OC)c(OC)c4c2C(C3)N(C)CC4)cc1OC` (stereo not drawn), the T/C (dose: 37.5 mg/kg/injection, schedule: Q01DX009 (ip), vehicle: Klucel (hydroxypropylcellulose) (HPC)) was 102 % of control, the T/C (dose: 75.0 mg/kg/injection, schedule: Q01DX009 (ip), vehicle: Klucel (hydroxypropylcellulose) (HPC)) was 88 % of control and the T/C (dose: 150.0 mg/kg/injection, schedule: Q01DX009 (ip), vehicle: Klucel (hydroxypropylcellulose) (HPC)) was 94 % of control.
In the case of `NC(=O)CCn1cnc2c(N)ncnc21`, the T/C (dose: 25.0 mg/kg/injection, schedule: Q04DX003 (ip), vehicle: saline) is reported as 100 % of control, the T/C (dose: 50.0 mg/kg/injection, schedule: Q04DX003 (ip), vehicle: saline) is reported as 100 % of control and the T/C (dose: 100.0 mg/kg/injection, schedule: Q04DX003 (ip), vehicle: saline) is reported as 99 % of control.
With `S=c1[nH]nc(-c2cnns2)o1` the T/C (dose: 50.0 mg/kg/injection, schedule: Q04DX003 (ip), vehicle: Klucel (hydroxypropylcellulose) (HPC)) was 103 % of control, the T/C [3] was 98 % of control and the T/C [4] was 107 % of control.
In the case of `NC(=O)c1[nH]ccc1NCc1ccccc1`, the T/C (dose: 50.0 mg/kg/injection, schedule: Q01DX005 (ip), vehicle: saline with Tween-80) is reported as 97 % of control, the T/C (dose: 100.0 mg/kg/injection, schedule: Q01DX005 (ip), vehicle: saline with Tween-80) is reported as 88 % of control and the T/C (dose: 200.0 mg/kg/injection, schedule: Q01DX005 (ip), vehicle: saline with Tween-80) is reported as 97 % of control.
With `Nc1ccn([C@@H](C=O)O[C@@H](C=O)CO)c(=O)n1` the T/C (dose: 44.0 mg/kg/injection, schedule: Q04DX003 (ip), vehicle: saline) was 112 % of control, the T/C (dose: 66.0 mg/kg/injection, schedule: Q04DX003 (ip), vehicle: saline) was 120 % of control and the T/C (dose: 100.0 mg/kg/injection, schedule: Q01DX009 (ip), vehicle: saline) was 150 % of control. For the same molecule, the T/C (dose: 200.0 mg/kg/injection, schedule: Q01DX009 (ip), vehicle: saline) was 180 % of control.
In the case of `CC(=O)C1=CC(C)(C)OC1=O`, the T/C [8] is reported as 103 % of control and the T/C [9] is reported as 109 % of control.
`COc1ccc(CN(CCCCCCN(Cc2ccc(OC)cc2)CC23CC4CC(CC(C4)C2)C3)CC23CC4CC(CC(C4)C2)C3)cc1` was tested, and the T/C [8] was 98 % of control, the T/C [9] was 94 % of control and the T/C (dose: 400.0 mg/kg/injection, schedule: Q04DX002 (ip), vehicle: saline with Tween-80) was 94 % of control.
For `COc1ccc2c([O-])c3[n+](c(OC)c2c1OC)CCc1cc2c(cc1-3)OCO2`, the T/C (dose: 50.0 mg/kg/injection, schedule: Q04DX002 (ip), vehicle: saline with Tween-80) was 94 % of control, the T/C [8] was 104 % of control and the T/C [9] was 103 % of control.
`c1ccc(CNc2ccnc3c2ccc2ccccc23)cc1` was tested, and the T/C (dose: 100.0 mg/kg/injection, schedule: Q01DX001 (ip), vehicle: Klucel (hydroxypropylcellulose) (HPC)) was 100 % of control, the T/C (dose: 200.0 mg/kg/injection, schedule: Q01DX001 (ip), vehicle: Klucel (hydroxypropylcellulose) (HPC)) was 97 % of control and the T/C (dose: 400.0 mg/kg/injection, schedule: Q01DX001 (ip), vehicle: Klucel (hydroxypropylcellulose) (HPC)) was 100 % of control.
For `O=C1c2ccccc2C(=O)N1CCNCCN1C(=O)c2ccccc2C1=O`, the T/C [5] was 103 % of control, the T/C [6] was 93 % of control and the T/C [7] was 93 % of control.
In the case of `CSc1nc(N)c(C(=O)N2CCCCC2)s1`, the T/C (dose: 50.0 mg/kg/injection, schedule: Q01DX009 (ip), vehicle: Klucel (hydroxypropylcellulose) (HPC)) is reported as 100 % of control, the T/C [1] is reported as 100 % of control and the T/C [2] is reported as 89 % of control.
With `CN1C(=O)/C(=C2\Sc3ccccc3NC2=O)SC1=S` the T/C (dose: 50.0 mg/kg/injection, schedule: Q04DX003 (ip), vehicle: saline with Tween-80) was 92 % of control, the T/C (dose: 100.0 mg/kg/injection, schedule: Q04DX003 (ip), vehicle: saline with Tween-80) was 95 % of control and the T/C (dose: 200.0 mg/kg/injection, schedule: Q04DX003 (ip), vehicle: saline with Tween-80) was 102 % of control.
In the case of `CC(=O)C1=CCC2C3=CCC4=CC(O)[C@@H](O)C[C@]4(C)C3C[C@@H](O)[C@]12C` (stereo partly drawn), the T/C (dose: 0.94 mg/kg/injection, schedule: Q01DX005 (ip), vehicle: saline + alcohol) is reported as 100 % of control, the T/C (dose: 1.88 mg/kg/injection, schedule: Q01DX005 (ip), vehicle: saline + alcohol) is reported as 108 % of control and the T/C (dose: 3.75 mg/kg/injection, schedule: Q01DX005 (ip), vehicle: saline + alcohol) is reported as 108 % of control. For the same molecule, the T/C (dose: 6.25 mg/kg/injection, schedule: Q01DX005 (ip), vehicle: saline + Tween-80 + alcohol) was 100 % of control, the T/C (dose: 7.5 mg/kg/injection, schedule: Q01DX005 (ip), vehicle: saline + alcohol) was 104 % of control and the T/C (dose: 12.5 mg/kg/injection, schedule: Q01DX005 (ip), vehicle: saline + Tween-80 + alcohol) was 112 % of control. The T/C (dose: 25.0 mg/kg/injection, schedule: Q01DX005 (ip), vehicle: saline + Tween-80 + alcohol) was 109 % of control and the T/C (dose: 50.0 mg/kg/injection, schedule: Q01DX005 (ip), vehicle: saline + Tween-80 + alcohol) was 118 % of control.
With `CC1=C2C=CCC[C@H](C)[C@H]2CC1` the T/C (dose: 3.5 mg/kg/injection, schedule: Q01DX005 (ip), vehicle: water) was 95 % of control, the T/C (dose: 7.0 mg/kg/injection, schedule: Q01DX005 (ip), vehicle: water) was 95 % of control and the T/C (dose: 14.0 mg/kg/injection, schedule: Q01DX005 (ip), vehicle: water) was 92 % of control. For the same molecule, the T/C (dose: 28.0 mg/kg/injection, schedule: Q01DX005 (ip), vehicle: water) was 94 % of control.
For `N#CCC[P+](CCC#N)(CCC#N)CCN1C(=O)c2ccccc2C1=O`, the T/C (dose: 0.78 mg/kg/injection, schedule: Q01DX009 (ip), vehicle: water) was 96 % of control, the T/C (dose: 1.56 mg/kg/injection, schedule: Q01DX009 (ip), vehicle: water) was 89 % of control and the T/C (dose: 3.13 mg/kg/injection, schedule: Q01DX009 (ip), vehicle: water) was 100 % of control. The T/C (dose: 6.25 mg/kg/injection, schedule: Q01DX009 (ip), vehicle: water) was 115 % of control, the T/C (dose: 12.5 mg/kg/injection, schedule: Q01DX009 (ip), vehicle: water) was 108 % of control and the T/C (dose: 25.0 mg/kg/injection, schedule: Q01DX009 (ip), vehicle: water) was 102 % of control and 117 % of control. The T/C (dose: 50.0 mg/kg/injection, schedule: Q01DX009 (ip), vehicle: water) was 100 % of control, the T/C (dose: 100.0 mg/kg/injection, schedule: Q01DX009 (ip), vehicle: water) was 100 % of control and the T/C (dose: 200.0 mg/kg/injection, schedule: Q01DX009 (ip), vehicle: water) was 101 % of control.
